Results published in US20100099561A1, “HETEROBICYCLIC ALKYLTHIO-BRIDGED ISOXAZOLINES” (E.I. DU PONT DE NEMOURS AND COMPANY, priority 2008, published 2010).

Columns and labels:
Format in all cases: in vivo
[1] = tested on: barnyardgrass (Echinochloa crus-galli); assay: Test A preemergence, barnyardgrass; conditions: 0 to 100 scale (0 no effect, 100 complete control)
Procedure, shortened: (§1)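 Visual injury rating, 0 = no effect to 100 = complete control, made roughly ten days after treatment by comparison with untreated controls. Preemergence: directed soil spray onto freshly planted loam/sand. Postemergence: foliar application at one- to two-leaf stage, 2–10 cm height.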

[2] = tested on: barnyardgrass (Echinochloa crus-galli); assay: Test A postemergence, barnyardgrass; conditions: 0 to 100 scale (0 no effect, 100 complete control)
Procedure, shortened: as §1

[3] = tested on: morningglory (Ipomoea spp.); assay: Test A postemergence, morningglory; conditions: 0 to 100 scale (0 no effect, 100 complete control)
Procedure, shortened: as §1

corn (Zea mays) = assay: Test A postemergence, corn; conditions: 0 to 100 scale (0 no effect, 100 complete control)
Procedure, shortened: as §1

[4] = tested on: downy bromegrass (Bromus tectorum); assay: Test B preemergence, downy bromegrass; conditions: scale 0 to 100
Procedure, shortened: (§2)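 Visual injury rating, 0 (no effect) to 100 (complete control), made versus controls after 13 to 15 days in the greenhouse. Compounds were applied preemergence in a surfactant-containing non-phytotoxic solvent to seeds planted in loam/sand soil.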

[5] = tested on: Italian ryegrass (Lolium multiflorum); assay: Test B preemergence, Italian ryegrass; conditions: Preemergence, scale 0 to 100
Procedure, shortened: as §2

[6] = tested on: Surinam grass (Brachiaria decumbens); assay: Test B preemergence, Surinam grass; conditions: Preemergence, scale 0 to 100
Procedure, shortened: as §2

[7] = tested on: cocklebur (Xanthium strumarium); assay: Test B preemergence, cocklebur; conditions: scale 0 to 100
Procedure, shortened: as §2

[8] = tested on: large crabgrass (Digitaria sanguinalis); assay: Test B preemergence, large crabgrass; conditions: scale 0 to 100
Procedure, shortened: as §2

[9] = tested on: woolly cupgrass (Eriochloa villosa); assay: Test B preemergence, woolly cupgrass; conditions: scale 0 to 100
Procedure, shortened: as §2

[10] = tested on: goosegrass (Eleusine indica); assay: Test B preemergence, goosegrass; conditions: scale 0 to 100
Procedure, shortened: as §2

[11] = tested on: lambsquarters (Chenopodium album); assay: Test B preemergence, lambsquarters; conditions: scale 0 to 100
Procedure, shortened: as §2

[12] = tested on: pigweed (Amaranthus retroflexus); assay: Test B preemergence, pigweed; conditions: scale 0 to 100
Procedure, shortened: as §2

[13] = tested on: ragweed (common ragweed, Ambrosia elatior); assay: Test B preemergence, ragweed; conditions: scale 0 to 100
Procedure, shortened: as §2

soybean (Glycine max) = assay: Test B preemergence, soybean; conditions: Preemergence, scale 0 to 100
Procedure, shortened: as §2

[14] = tested on: sunflower (common oilseed sunflower, Helianthus annuus); assay: Test B preemergence, sunflower; conditions: Preemergence, scale 0 to 100
Procedure, shortened: as §2

[15] = tested on: umbrella sedge (Cyperus difformis); assay: Test B flooded paddy test, umbrella sedge; conditions: Flood, scale 0 to 100
Procedure, shortened: (§3)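 2-leaf plants; pots flooded 3 cm above soil; compound added to paddy water; depth maintained. Greenhouse 13–15 d. Visual rating vs controls, 0 (no effect) to 100 (complete control); dash = no result.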

[16] = tested on: barnyardgrass (Echinochloa crus-galli); assay: Test B flooded paddy test, barnyardgrass; conditions: Flood
Procedure, shortened: as §3

[17] = 250 g ai/ha, scale 0 to 100 (0 no effect, 100 complete control)

CC1(C)CC(S(=O)(=O)Cc2c(C(F)(F)F)nc3n(c2=O)CCS3)=NO1 [Compound 6]
20: Plant response rating, Bromegrass, Downy ([4]; 31 g ai/ha) | Plant response rating, Bromegrass, Downy ([4]; 62 g ai/ha) | Plant response rating, Surinam Grass ([6]; 16 g ai/ha) | Plant response rating, Lambsquarters ([11]; 31 g ai/ha)
35: Plant response rating, Ragweed ([13]; 125 g ai/ha)
60: Plant response rating, Surinam Grass ([6]; 31 g ai/ha) | Plant response rating, Cupgrass, Woolly ([9]; 16 g ai/ha)
25: Plant response rating, Ragweed ([13]; 62 g ai/ha)
80: Plant response rating, Barnyardgrass ([2]; 500 g ai/ha) | Plant response rating, Ryegrass, Italian ([5]; 62 g ai/ha)
100: Plant response rating, Surinam Grass ([6]; 125 g ai/ha) | Plant response rating, Crabgrass, Large ([8]; 31 g ai/ha) | Plant response rating, Crabgrass, Large ([8]; 62 g ai/ha) | Plant response rating, Crabgrass, Large ([8]; 125 g ai/ha) | Plant response rating, Cupgrass, Woolly ([9]; 125 g ai/ha) | Plant response rating, Goosegrass ([10]; 16 g ai/ha) | Plant response rating, Goosegrass ([10]; 31 g ai/ha) | Plant response rating, Goosegrass ([10]; 62 g ai/ha) | Plant response rating, Goosegrass ([10]; 125 g ai/ha) | Plant response rating, Pigweed ([12]; 62 g ai/ha) | Plant response rating, Pigweed ([12]; 125 g ai/ha)
40: Plant response rating, Morningglory ([3]; 125 g ai/ha)
15: Plant response rating, Ryegrass, Italian ([5]; 31 g ai/ha)
70: Plant response rating, Barnyardgrass ([1]; 125 g ai/ha) | Plant response rating, Barnyardgrass ([2]; 125 g ai/ha)
0: Plant response rating, Corn (corn (Zea mays); 125 g ai/ha) | Plant response rating, Corn (corn (Zea mays); 500 g ai/ha) | Plant response rating, Bromegrass, Downy ([4]; 16 g ai/ha) | Plant response rating, Ryegrass, Italian ([5]; 16 g ai/ha) | Plant response rating, Cocklebur ([7]; 16 g ai/ha) | Plant response rating, Cocklebur ([7]; 31 g ai/ha) | Plant response rating, Cocklebur ([7]; 62 g ai/ha) | Plant response rating, Cocklebur ([7]; 125 g ai/ha) | Plant response rating, Lambsquarters ([11]; 16 g ai/ha) | Plant response rating, Pigweed ([12]; 16 g ai/ha) | Plant response rating, Ragweed ([13]; 16 g ai/ha) | Plant response rating, Ragweed ([13]; 31 g ai/ha) | Plant response rating, Soybean (soybean (Glycine max); 16 g ai/ha) | Plant response rating, Soybean (soybean (Glycine max); 31 g ai/ha) | Plant response rating, Soybean (soybean (Glycine max); 62 g ai/ha) | Plant response rating, Soybean (soybean (Glycine max); 125 g ai/ha) | Plant response rating, Sunflower ([14]; 16 g ai/ha) | Plant response rating, Sunflower ([14]; 31 g ai/ha) | Plant response rating, Sunflower ([14]; 62 g ai/ha) | Plant response rating, Sunflower ([14]; 125 g ai/ha) | Plant response rating, Sedge, Umbrella ([15]; 62 g ai/ha) | Plant response rating, Barnyardgrass ([16]; 62 g ai/ha, scale 0 to 100) | Plant response rating, Barnyardgrass [16, 17]
90: Plant response rating, Barnyardgrass ([1]; 500 g ai/ha) | Plant response rating, Lambsquarters ([11]; 62 g ai/ha)
95: Plant response rating, Ryegrass, Italian ([5]; 125 g ai/ha) | Plant response rating, Crabgrass, Large ([8]; 16 g ai/ha) | Plant response rating, Lambsquarters ([11]; 125 g ai/ha)
50: Plant response rating, Morningglory ([3]; 500 g ai/ha) | Plant response rating, Bromegrass, Downy ([4]; 125 g ai/ha) | Plant response rating, Pigweed ([12]; 31 g ai/ha)
75: Plant response rating, Sedge, Umbrella ([15]; 250 g ai/ha)
98: Plant response rating, Surinam Grass ([6]; 62 g ai/ha) | Plant response rating, Cupgrass, Woolly ([9]; 31 g ai/ha) | Plant response rating, Cupgrass, Woolly ([9]; 62 g ai/ha)

CC1(C)CC(S(=O)(=O)Cc2c(C(F)(F)Cl)nc3n(c2=O)CCC3)=NO1 [Compound 18]
80: Plant response rating, Barnyardgrass ([2]; 125 g ai/ha) | Plant response rating, Barnyardgrass ([2]; 500 g ai/ha)
0: Plant response rating, Corn (corn (Zea mays); 125 g ai/ha) | Plant response rating, Bromegrass, Downy ([4]; 16 g ai/ha) | Plant response rating, Bromegrass, Downy ([4]; 31 g ai/ha) | Plant response rating, Bromegrass, Downy ([4]; 62 g ai/ha) | Plant response rating, Ryegrass, Italian ([5]; 16 g ai/ha) | Plant response rating, Ryegrass, Italian ([5]; 31 g ai/ha) | Plant response rating, Surinam Grass ([6]; 16 g ai/ha) | Plant response rating, Cocklebur ([7]; 16 g ai/ha) | Plant response rating, Cocklebur ([7]; 31 g ai/ha) | Plant response rating, Cocklebur ([7]; 62 g ai/ha) | Plant response rating, Cocklebur ([7]; 125 g ai/ha) | Plant response rating, Crabgrass, Large ([8]; 16 g ai/ha) | Plant response rating, Cupgrass, Woolly ([9]; 16 g ai/ha) | Plant response rating, Goosegrass ([10]; 16 g ai/ha) | Plant response rating, Lambsquarters ([11]; 16 g ai/ha) | Plant response rating, Lambsquarters ([11]; 31 g ai/ha) | Plant response rating, Pigweed ([12]; 16 g ai/ha) | Plant response rating, Ragweed ([13]; 16 g ai/ha) | Plant response rating, Ragweed ([13]; 31 g ai/ha) | Plant response rating, Ragweed ([13]; 62 g ai/ha) | Plant response rating, Ragweed ([13]; 125 g ai/ha) | Plant response rating, Soybean (soybean (Glycine max); 16 g ai/ha) | Plant response rating, Soybean (soybean (Glycine max); 31 g ai/ha) | Plant response rating, Soybean (soybean (Glycine max); 62 g ai/ha) | Plant response rating, Soybean (soybean (Glycine max); 125 g ai/ha) | Plant response rating, Sunflower ([14]; 16 g ai/ha) | Plant response rating, Sunflower ([14]; 31 g ai/ha) | Plant response rating, Sunflower ([14]; 62 g ai/ha) | Plant response rating, Sunflower ([14]; 125 g ai/ha) | Plant response rating, Sedge, Umbrella ([15]; 31 g ai/ha) | Plant response rating, Sedge, Umbrella ([15]; 62 g ai/ha) | Plant response rating, Sedge, Umbrella ([15]; 125 g ai/ha) | Plant response rating, Sedge, Umbrella ([15]; 250 g ai/ha) | Plant response rating, Barnyardgrass ([16]; 31 g ai/ha, scale 0 to 100) | Plant response rating, Barnyardgrass ([16]; 62 g ai/ha, scale 0 to 100) | Plant response rating, Barnyardgrass ([16]; 125 g ai/ha, scale 0 to 100) | Plant response rating, Barnyardgrass [16, 17]
60: Plant response rating, Morningglory ([3]; 500 g ai/ha)
75: Plant response rating, Surinam Grass ([6]; 62 g ai/ha) | Plant response rating, Lambsquarters ([11]; 62 g ai/ha)
40: Plant response rating, Corn (corn (Zea mays); 500 g ai/ha) | Plant response rating, Ryegrass, Italian ([5]; 125 g ai/ha) | Plant response rating, Surinam Grass ([6]; 31 g ai/ha)
98: Plant response rating, Goosegrass ([10]; 62 g ai/ha) | Plant response rating, Goosegrass ([10]; 125 g ai/ha)
95: Plant response rating, Cupgrass, Woolly ([9]; 125 g ai/ha) | Plant response rating, Goosegrass ([10]; 31 g ai/ha)
70: Plant response rating, Barnyardgrass ([1]; 125 g ai/ha) | Plant response rating, Crabgrass, Large ([8]; 31 g ai/ha)
35: Plant response rating, Ryegrass, Italian ([5]; 62 g ai/ha)
85: Plant response rating, Surinam Grass ([6]; 125 g ai/ha) | Plant response rating, Lambsquarters ([11]; 125 g ai/ha)
20: Plant response rating, Bromegrass, Downy ([4]; 125 g ai/ha) | Plant response rating, Cupgrass, Woolly ([9]; 31 g ai/ha)
90: Plant response rating, Crabgrass, Large ([8]; 62 g ai/ha)
65: Plant response rating, Cupgrass, Woolly ([9]; 62 g ai/ha)
100: Plant response rating, Barnyardgrass ([1]; 500 g ai/ha) | Plant response rating, Crabgrass, Large ([8]; 125 g ai/ha) | Plant response rating, Pigweed ([12]; 31 g ai/ha) | Plant response rating, Pigweed ([12]; 62 g ai/ha) | Plant response rating, Pigweed ([12]; 125 g ai/ha)
30: Plant response rating, Morningglory ([3]; 125 g ai/ha)
